Measurements: patent US7605185B2, “Treatment of arrhythmia by retinoids affecting signal transduction” (priority 1999, dated 2009)

Assays:
[1] = system: mouse heart (cardiomyocytes); test: Perinatal mouse heart model: cardiac growth, heart size and weight after retinoid gavage; assay type: in vivo
Procedure: (§1) 1 week old litters of C57/b mice (around 3 g body weight) were divided into groups of five to 10 animals, to be treated with all-trans-RA in carrier, 9cis-RA in carrier, or carrier (canola oil, Sigma). Every treatment group was assigned to one nursing mother. Groups larger than 10 pups were avoided, to exclude limited feeding frequency as experimental variable. A retinoid preparation for gavage was formulated such that every animal received a maximum of 150 μl volume containing 40 mg/kg all-trans RA in carrier, 12 mg/kg or 20 mg/kg 9cis-RA in carrier, or carrier alone. DMSO or ethanol content was limited to 0.1%. Pups were gavage-fed from a tuberculin syringe connected with a bent vein catheter. The strong suckling reflex facilitated delivery of the viscous and odorous formulation. Depending on the territorial protection behaviour of the mother, pups were briefly rolled in cage stray after gavage to prevent triggering maternal infanticide behaviour through unusual smell of the pups. For two hours after gavage, pups were carefully monitored to prevent maternal infanticide. Every 24 h, the weight was recorded.
(§2) For uptake kinetics, pairs of treated pups were sacrificed by decapitation after 1 h, 2 h, 4 h, 8 h, 16 h, 24 h, 36 h and 72 h. Organs were removed under the dissection microscope and frozen in liquid nitrogen. Hearts were dissected under the surgical dissection microscope; tissues were divided into atria, ventricles, and enriched in conductance system (a tissue preparation containing the ventricular septa with the Purkinje fibers and the atrial region between the aorta and the pulmonal artery (outflow tract) with the sinus node). For immunohistology, pups were sacrificed after 72 h, hearts were rinsed in PBS, weighed and fixed in 4% para-formaldehyde in PBS before embedding in OCT for standard cryostat procedures. If pups were on the brink of death (typically between 36 and 72 h after gavage), they were sacrificed, and hearts were collected for confocal microscopy or HPLC.

[2] = system: cardiac conductance cells and cardiac neurons; test: TUNEL apoptosis staining with connexin37/40 or neuron-specific enolase counterstain, confocal microscopy; assay type: in vivo, mouse
Procedure: as §1, §2
For confocal microscopy, cryostat sections were first stained for apoptotic DNA strand breaks according to the TUNEL protocol (using the commercially available Apoptag™ kit, Oncor Inc., Gaithersburg Md.) and counterstained with rabbit anti-connexin37 antibody or rabbit anti-connexin40 antibody for conductance cells, or with rabbit anti-myosin antibody for cardiac myocytes. Immunodetection of connexin isoforms 40 and 43 has been established as a useful method to detect cells of the cardiac conductance system in rodents (Gourdie et al., The spatial distribution and relative abundance of gap-junctional connexin40 and connexin43 correlate to functional properties of components of the cardiac atrioventricular conducting system, J. Cell Science 105 (Pt 4) 985-991, 1993); because of the relatively weak signal of connexin40, the connexin isoform 37 can be used as equivalent marker for the conductance system in the mouse model (Willecke K et al, 1991; Willecke K, personal communication). The combination of rabbit anti-Neuron-specific enolase with propidium iodide followed published procedures (Current Protocols in Molecular Biology) and was used to identify cardiac neurons with advanced apoptotic condensation of nuclei. Procedures of immunohistology and image analysis are further described in detail in Graupner, WO 00/53236.

cardiac myocytes = test: TUNEL apoptosis staining with anti-myosin counterstain, confocal microscopy; assay type: in vivo, mouse
Text: as §1, with “A retinoid preparation for gavage was formulated such that every animal received a maximum of 150 μl volume containing 40 mg/kg all-trans RA in carrier, 12 mg/kg or 20 mg/kg 9cis-RA in carrier, or carrier alone.” left out
(§3) For uptake kinetics, pairs of treated pups were sacrificed by decapitation after 1 h, 2 h, 4 h, 8 h, 16 h, 24 h, 36 h and 72 h. Organs were removed under the dissection microscope and frozen in liquid nitrogen. […]

[3] = system: mitochondrial Mn-dependent superoxide dismutase Mn-SOD; test: Quantitative confocal immunohistology of Mn-SOD protein signal in cardiac outflow tract; assay type: in vivo, mouse; conditions: 20 mg/kg; for upregulation of MnSOD protein signal: connexin-positive cells
Procedure: as §1, with “recorded. […]” for “recorded.”
The mechanism of apoptosis was investigated using commercially available primary antibodies of highest purity, at dilutions recommended by the manufacturer, against IGF-1, IGF-II, the entire set of IGFbinding proteins (IGFBP1-5), IGF-R, mitochondrial Mn-dependent superoxide dismutase Mn-SOD, and cytoplasmic Cu/Zn-dependent superoxide dismutase Cu/Zn-SOD. […] Confocal images were captured and processed for quantitative analysis by Zeiss LSM-300 software. Briefly, the pixel intensities per unit area amounting to channel background were determined for each antibody/seconday antibody combination and subtracted from the experimental pixel intensities. […] At least five independent regions of similar size were analyzed per tissue type and retinoid treatment condition. Averaged pixel intensities per unit area upon 9cis retinoid induction were expressed as multiples of averaged pixel intensities per unit area in the absence of 9cis retinoid induction (fold induction +/−s.e.m.)

[4] = system: endogenous peroxidase activity; test: Gas release from heart tissue sections on addition of H2O2; assay type: in vivo, mouse; conditions: 20 mg/kg
Procedure: as §1, with “The strong suckling reflex facilitated delivery of the viscous and odorous formulation. Depending on the territorial protection behaviour of the mother, pups were briefly rolled in cage stray after gavage to prevent triggering maternal infanticide behaviour through unusual smell of the pups.” left out
Another observation with significant ramifications is the substantial activation of pathways metabolizing reactive oxygen species in cardiac tissue after administration of 20 mg/kg of 9cis-RA. […] Second, very high upregulation of MnSOD protein signal was detected in connexin-positive cells of the cardiac outflow tract; the signal of 3.4 fold upregulation localizes to the region of the atrium surrounding the sino-atrial node; the signal of 11 fold upregulation localizes most likely to the area of the sino-atrial node proper. […]

IGFBP5 = test: Confocal immunohistology of IGF pathway proteins in cardiac cell types; assay type: in vivo, mouse; conditions: after treatment, dose not stated
Procedure: as §1, with “The strong suckling reflex facilitated delivery of the viscous and odorous formulation. Depending on the territorial protection behaviour of the mother, pups were briefly rolled in cage stray after gavage to prevent triggering maternal infanticide behaviour through unusual smell of the pups.” left out, “recorded. […]” for “recorded.”
The mechanism of apoptosis was investigated using commercially available primary antibodies of highest purity, at dilutions recommended by the manufacturer, against IGF-1, IGF-II, the entire set of IGFbinding proteins (IGFBP1-5), IGF-R, mitochondrial Mn-dependent superoxide dismutase Mn-SOD, and cytoplasmic Cu/Zn-dependent superoxide dismutase Cu/Zn-SOD. […] Confocal images were captured and processed for quantitative analysis by Zeiss LSM-300 software. […] At least five independent regions of similar size were analyzed per tissue type and retinoid treatment condition. […]

[5] = Death of mouse pups after gavage; assay type: in vivo; conditions: nonmutagenic amounts
Procedure: as §1, §3

[6] = higher amounts, 20 mg/kg and higher, mice
[7] = in vivo administration to mice, dose not stated

CC1=C(/C=C/C(C)=C\C=C\C(C)=C\C(=O)O)C(C)(C)CCC1 [9cis-RA, 9-cis retinoic acid]
effect on growth (growth factor-dependent pathway) ([1]; 10 mg/kg): growth-inhibitory effect
size of the average myocardial myocyte ([1]; 20 mg/kg or less than 10 mg/kg): reduced
myocardial growth stunting ([1]; around 10 mg/kg): approached complete growth arrest
growth of cardiomyocytes [1, 6]: reduced growth of cardiomyocytes
growth of cardiomyocytes [1, 7]: reduced growth of cardiomyocytes
cell growth in heart ([1]; moderate amounts, 3-10 mg/kg, mice): reduced growth of cardiomyocytes, cardiac neurons, and cells of the cardiac conductance system
apoptosis in cardiac conductance cells of perinatal mouse heart (FIG. 3, confocal micrographs) ([2]; 20 mg/kg): colocalization of apoptosis in cardiac conductance cells
correlation between apoptosis and conductance cell phenotype ([2]; 20 mg/kg): strong correlation
effect on apoptosis ([2]; 40 mg/kg): pro-apoptotic effect
apoptosis of cardiac neurons and cardiac pacemaker cells [2, 6]: apoptosis of cardiac neurons and cardiac pacemaker cells
apoptosis in cardiac neurons and cardiac conductance system [2, 7]: apoptosis in cardiac neurons and cells of the cardiac conductance system
correlation between apoptosis and conductance cell type ([2]; less than 10 mg/kg): no correlation
colocalization of TUNEL signal in cardiac myocytes (cardiac myocytes; 20 mg/kg): No colocalization of TUNEL signal
colocalization of TUNEL signal in cardiac myocytes (cardiac myocytes; less than 10 mg/kg): No colocalization of TUNEL signal
immunoreactive Mn-SOD in mitochondria of cells in the cardiac outflow tract (FIG. 4) ([3]; versus carrier): upregulation
upregulation of MnSOD protein signal ([3]; most likely area of the sino-atrial node proper): 11 fold
upregulation of MnSOD protein signal ([3]; region of the atrium surrounding the sino-atrial node): 3.4 fold
gas bubbles released from myocardial cells on H2O2 addition (endogenous peroxidase activity) [4]: remarkable amounts of gas bubbles were released
IGFBP5 expression in cardiac myocytes (IGFBP5): moderately upregulated
death of mouse pups after gavage [5]: sudden death of mouse pups

CC1=C(/C=C/C(C)=C/C=C/C(C)=C/C(=O)O)C(C)(C)CCC1 [all-trans-RA, all-trans retinoic acid]
myocardial growth reduction ([1]; 40 mg/kg): less than 30%
correlation between apoptosis and conductance cell type ([2]; 40 mg/kg): no correlation
